Data reported in patent publication US9801940B2, “Oral care compositions” (Colgate-Palmolive Company, priority 2010, dated 2017).

Test system: representative oral bacteria S. mutans, F. nucleatum, V. parvula, A. naslundii, P. gingivitis
Assay: Bactericidal properties in in vitro tests
Assay type: cell-based
Description: As referred to herein, the expressions “extract of magnolia” or “magnolia extract” denote an extract from dried cortex, or bark, of a plant from the Magnoliaceae family, such as Magnolia officinalis, (hereinafter “magnolia”), or a synthetic or semi-synthetic equivalent of such an extract or an active component thereof. […] In other embodiments, the oral composition comprises an extract of magnolia. […] It should be noted that any plant from the Magnoliaceae family is suitable for extracting the active ingredients used in the present embodiment.

| SMILES | bactericidal properties against representative oral bacteria |
| --- | --- |
| C=CCc1ccc(O)c(-c2ccc(O)c(CC=C)c2)c1 [honokiol] | demonstrated bactericidal properties |
| C=CCc1ccc(O)c(-c2cc(CC=C)ccc2O)c1 [magnolol] | demonstrated bactericidal properties |
| CCCc1ccc(O)c(-c2ccc(O)c(CCC)c2)c1 [tetrahydrohonokiol, 3′,5-dipropylbiphenyl-2,4′-diol] | demonstrated bactericidal properties |
| CCCc1ccc(O)c(-c2cc(CCC)ccc2O)c1 [tetrahydromagnolol, 5,5′-dipropylbiphenyl-2,2′-diol] | demonstrated bactericidal properties |
